One block for each compound: values may come before it.
Experiments:
[1] = system: Human immunodeficiency virus 1; test: Antiviral activity against HIV-1 NL4-3 infected in human TZM-bl cells assessed as reduction in virus-induced cytopathic effect incubated for 2 days by Bright Glo assay; format: functional, organism-based; details: Human immunodeficiency virus 1, NL4-3, TZM-bl, 48 h
[2] = system: Human immunodeficiency virus 1; test: Antiviral activity against HIV-1 IIIB infected in human MT4 cells assessed as reduction in virus-induced cytopathic effect incubated for 5 days by MTT assay; format: functional, organism-based; details: Human immunodeficiency virus 1, IIIB, MT4, 120 h
[3] = system: Human immunodeficiency virus 1; test: Antiviral activity against HIV-1 E138K mutant infected in human MT4 cells assessed as reduction in viral replication incubated for 5 days by MTT assay; format: functional, organism-based; details: Human immunodeficiency virus 1, E138K mutant, MT4, 120 h
[4] = system: MT4; test: Cytotoxicity against human MT4 cells assessed as reduction in cell viability incubated for 5 days by MTT assay; format: functional; details: MT4, 120 h, time 5 day
[5] = Selectivity index, ratio of CC50 for human MT4 cells to EC50 for HIV-1 IIIB infected in human MT4 cells; format: toxicity, cell-based; details: MT4 cells (uninfected, and infected with HIV-1 IIIB), read-out: Ratio CC50/EC50
[6] = system: Human immunodeficiency virus 1; test: Antiviral activity against wild-type HIV-1 IIIB infected in human C8166 cells assessed as reduction in virus-induced cytopathic effect incubated for 3 days by MTT assay; format: functional, organism-based; details: Human immunodeficiency virus 1, IIIB, C8166, 72 h
[7] = Selectivity index, ratio of CC50 for human C8166 cells to EC50 for HIV IIIB infected in human C8166 cells; format: toxicity, cell-based; details: C8166 cells (uninfected, and infected with HIV IIIB), read-out: Ratio CC50/EC50
[8] = Inhibition of HIV-1 gp41 six-helix bundle formation incubated with N36 for 30 mins followed by incubation with C34 peptide for 30 mins by sandwich ELISA; format: functional, Human immunodeficiency virus 1
[9] = system: Human immunodeficiency virus 1; test: Antiviral activity against HIV-1 IIIB infected in human MT2 cells assessed as reduction in viral replication; format: functional, organism-based; details: Human immunodeficiency virus 1, IIIB
[10] = Selectivity index, ratio of CC50 for human MT2 cells to EC50 for HIV-1 IIIB infected in human MT2 cells; format: toxicity, cell-based; details: MT2 cells (uninfected, and infected with HIV-1 IIIB), read-out: Ratio CC50/EC50

Structure (SMILES): N#Cc1ccc(Nc2nccc(/C(=N\O)c3ccc(-c4ccc(F)cc4)cc3F)n2)cc1
- IC50 [2]: 12100 nM
- IC50 [3]: 27 nM
- CC50 [4]: > 292000 nM
- selectivity ratio [5]: > 24100

Structure (SMILES): CCc1c(CC2CCCCC2)nc(SCc2cc(-c3ccc(O)cc3)[nH]n2)[nH]c1=O
- IC50 [6]: 3.8 nM
- selectivity ratio [7]: 25.5

Structure (SMILES): Cc1cccc2cc(/C=C3\NC(=O)N(Cc4ccccc4)C3=O)c(Cl)nc12
- IC50 [9]: 148 nM
- selectivity ratio [10]: 117

Other lines, results leading:

- IC50 [1]: 2130 nM
Structure (SMILES): COc1ccc(N(C)C(=O)[C@H](Cc2cc(F)cc(F)c2)NC(=O)c2cccc(-c3cn(Cc4ccc([N+](=O)[O-])cc4)nn3)c2)cc1

- IC50 [8]: 23000 nM
Structure (SMILES): Cc1cc(/C=C2\SC(=S)N(Cc3ccccc3C(F)(F)F)C2=O)c(C)n1-c1ccc(O)c(C(=O)O)c1

From ChEMBL document CHEMBL5113385, “Natural products and synthetic analogues against HIV: A perspective to develop new potential anti-HIV drugs” (Eur J Med Chem, 2022)
